Source: patent publication US8802597B2, “Herbicidal pyrimidines” (E I du Pont de Nemours and Company, priority 2003, dated 2014)
Where two headings read alike, the source gives them in different places.

What was measured:
Experiment in all cases: Test C pre/postemergence
Assay type in all cases: in vivo
[1] = tested on: johnsongrass (Sorghum halepense); conditions: for pest or weed control at 31 g/ha / pest or weed control at 62 g/ha / pest or weed control at 125 g/ha / pest or weed control at 250 g/ha: Sorghum halepense; for pest or weed control at 31 g/ha: 31 g ai/ha; for pest or weed control at 125 g/ha: 125 g ai/ha
Text: (§1) Seeds or nutlets of plant species selected from bermudagrass (Cynodon dactylon), Surinam grass (Brachiaria decumbens), cocklebur (Xanthium strumarium), corn (Zea mays), crabgrass (Digitaria sanguinalis), woolly cupgrass (Eriochloa villosa), giant foxtail (Setaria faberii), goosegrass (Eleusine indica), johnsongrass (Sorghum halepense), kochia (Kochia scoparia), lambsquarters (Chenopodium album), morningglory (Ipomoea coccinea), eastern black nightshade (Solanum ptycanthum), yellow nutsedge (Cyperus esculentus), pigweed (Amaranthus retroflexus), common ragweed (Ambrosia elatior), soybean (Glycine max), common (oilseed) sunflower (Helianthus annuus), and velvetleaf (Abutilon theophrasti) were planted and treated preemergence with test chemicals formulated in a non-phytotoxic solvent mixture which included a surfactant.
(§2) At the same time, plants selected from these crop and weed species and also winter barley (Hordeum vulgare), blackgrass (Alopecurus myosuroides), canarygrass (Phalaris minor), chickweed (Stellaria media), downy brome (Bromus tectorum), green foxtail (Setaria viridis), Italian ryegrass (Lolium multiflorum), wheat (Triticum aestivum), wild oat (Avena fatua) and windgrass (Apera spica-venti) were treated with postemergence applications of some of the test chemicals formulated in the same manner. Plants ranged in height from 2 to 18 cm (1- to 4-leaf stage) for postemergence treatments. Plant species in the flooded paddy test consisted of rice (Oryza sativa), umbrella sedge (Cyperus difformis), duck salad (Heteranthera limosa) and barnyardgrass (Echinochloa crus-galli) grown to the 2-leaf stage for testing. Treated plants and controls were maintained in a greenhouse for 12 to 14 days, after which time all species were compared to controls and visually evaluated. Plant response ratings, summarized in Table C, are based on a scale of 0 to 100 where 0 is no effect and 100 is complete control. A dash (-) response means no test result.

[2] = tested on: giant foxtail (Setaria faberii); conditions: for pest or weed control at 125 g/ha / pest or weed control at 31 g/ha / pest or weed control at 62 g/ha / pest or weed control at 250 g/ha: Setaria faberi; for pest or weed control at 31 g/ha: 31 g ai/ha
Text: as §1, §2

[3] = tested on: bermudagrass (Cynodon dactylon); conditions: for Plant response rating, Bermudagrass / pest or weed control at 125 g/ha / pest or weed control at 250 g/ha: scale 0 to 100; for pest or weed control at 31 g/ha / pest or weed control at 62 g/ha / pest or weed control at 125 g/ha / pest or weed control at 250 g/ha: Cynodon dactylon; for pest or weed control at 31 g/ha: 31 g ai/ha
Text: as §1, §2

soybean (Glycine max) = conditions: for plant injury at 31 g/ha / plant injury at 62 g/ha / plant injury at 125 g/ha / plant injury at 250 g/ha: Glycine max; for plant injury at 31 g/ha: 31 g ai/ha
Text: as §1, §2

[4] = Postemergence, 62 g ai/ha, scale 0 to 100 (0 no effect, 100 complete control)
[5] = Postemergence, 250 g ai/ha, scale 0 to 100
[6] = Postemergence, 500 g ai/ha, scale 0 to 100
[7] = Postemergence, 125 g ai/ha, scale 0 to 100 (0 no effect, 100 complete control)

`CC(=O)NN=Cc1nc(C2CC2)nc(N)c1Br` [Compound 51] was tested, and the “Johnsongrass plant response rating” value [1, 4] was 0, the “Plant response rating, Johnsongrass” value [1, 5] was 0 and the “Plant response rating, Johnsongrass” value [1, 6] was 0. The “Foxtail, Giant plant response rating” value [2, 4] was 0, the “Foxtail, Giant plant response rating” value [2, 7] was 0 and the “Plant response rating, Foxtail, Giant” value [2, 5] was 0. For the same compound, the “Plant response rating, Foxtail, Giant” value [2, 6] was 0, the “Bermudagrass plant response rating” value [3, 4] was 0 and the “Bermudagrass plant response rating” value [3, 7] was 0. The “Plant response rating, Bermudagrass” value ([3]; Postemergence, 250 g ai/ha) was 0, the “Plant response rating, Bermudagrass” value ([3]; Postemergence, 500 g ai/ha) was 0 and the “Soybean plant response rating” value (soybean (Glycine max); [4]) was 75. The “Soybean plant response rating” value (soybean (Glycine max); [7]) was 95, the “Plant response rating, Soybean” value (soybean (Glycine max); [5]) was 95 and the “Plant response rating, Soybean” value (soybean (Glycine max); [6]) was 95.
`COC(=O)c1nc(C(C)C)nc(N)c1Br` [Compound 3] showed a pest or weed control at 31 g/ha ([1]; post-emergence, Postemergence, read-out: Plant response rating (scale of 0 to 100), Johnsongrass) of 0%, a pest or weed control at 62 g/ha ([1]; post-emergence, Postemergence, 62 g ai/ha, scale 0 to 100 (0 no effect, 100 complete control), read-out: Johnsongrass plant response rating) of 0% and a pest or weed control at 125 g/ha ([1]; post-emergence, Postemergence, scale 0 to 100 (0 no effect, 100 complete control), read-out: Johnsongrass plant response rating) of 0%. For the same compound, the pest or weed control at 250 g/ha ([1]; post-emergence, Postemergence, 250 g ai/ha, scale 0 to 100, read-out: Plant response rating, Johnsongrass) was 0%, the pest or weed control at 31 g/ha ([1]; pre-emergence, Preemergence, scale 0 to 100, 0 no effect, 100 complete control, read-out: Plant response rating, Johnsongrass) was 0% and the pest or weed control at 62 g/ha ([1]; pre-emergence, Preemergence, 62 g ai/ha, scale 0 to 100, 0 no effect, 100 complete control, read-out: Plant response rating, Johnsongrass) was 0%. It also gave a pest or weed control at 125 g/ha ([1]; pre-emergence, Preemergence, scale 0 to 100, read-out: Plant response rating, Johnsongrass) of 0%, a pest or weed control at 250 g/ha ([1]; pre-emergence, Preemergence, 250 g ai/ha, scale 0 to 100, read-out: Plant response rating, Johnsongrass) of 0% and a pest or weed control at 125 g/ha ([2]; post-emergence, Postemergence, 125 g ai/ha, scale 0 to 100 (0 no effect, 100 complete control), read-out: Foxtail, Giant plant response rating) of 0%. The pest or weed control at 31 g/ha ([2]; post-emergence, Postemergence, read-out: Plant response rating (scale of 0 to 100), Foxtail, Giant) was 0%, the pest or weed control at 62 g/ha ([2]; post-emergence, Postemergence, 62 g ai/ha, scale 0 to 100 (0 no effect, 100 complete control), read-out: Foxtail, Giant plant response rating) was 0% and the pest or weed control at 250 g/ha ([2]; post-emergence, Postemergence, 250 g ai/ha, scale 0 to 100, read-out: Plant response rating, Foxtail, Giant) was 0%. It also gave a pest or weed control at 31 g/ha ([2]; pre-emergence, Preemergence, scale 0 to 100, 0 no effect, 100 complete control, read-out: Plant response rating, Foxtail, Giant) of 0%, a pest or weed control at 62 g/ha ([2]; pre-emergence, Preemergence, 62 g ai/ha, scale 0 to 100, 0 no effect, 100 complete control, read-out: Plant response rating, Foxtail, Giant) of 0% and a pest or weed control at 125 g/ha ([2]; pre-emergence, Preemergence, 125 g ai/ha, scale 0 to 100, read-out: Plant response rating, Foxtail, Giant) of 0%. It also gave a pest or weed control at 250 g/ha ([2]; pre-emergence, Preemergence, 250 g ai/ha, scale 0 to 100, read-out: Plant response rating, Foxtail, Giant) of 0%, a pest or weed control at 31 g/ha ([3]; post-emergence, Postemergence, read-out: Plant response rating (scale of 0 to 100), Bermudagrass) of 0% and a pest or weed control at 62 g/ha ([3]; post-emergence, Postemergence, 62 g ai/ha, scale 0 to 100 (0 no effect, 100 complete control), read-out: Bermudagrass plant response rating) of 0%. For the same compound, the pest or weed control at 125 g/ha ([3]; post-emergence, Postemergence, 125 g ai/ha, read-out: Plant response rating, Bermudagrass) was 0%, the pest or weed control at 250 g/ha ([3]; post-emergence, Postemergence, 250 g ai/ha, read-out: Plant response rating, Bermudagrass) was 45% and the pest or weed control at 31 g/ha ([3]; pre-emergence, Preemergence, scale 0 to 100, 0 no effect, 100 complete control, read-out: Plant response rating, Bermudagrass) was 0%. The pest or weed control at 62 g/ha ([3]; pre-emergence, Preemergence, 62 g ai/ha, scale 0 to 100, 0 no effect, 100 complete control, read-out: Plant response rating, Bermudagrass) was 0%, the pest or weed control at 125 g/ha ([3]; pre-emergence, Preemergence, 125 g ai/ha, read-out: Plant response rating, Bermudagrass) was 0% and the pest or weed control at 250 g/ha ([3]; pre-emergence, Preemergence, 250 g ai/ha, read-out: Plant response rating, Bermudagrass) was 0%. It also gave a plant injury at 31 g/ha (soybean (Glycine max); post-emergence, Postemergence, read-out: Plant response rating (scale of 0 to 100), Soybean) of 60%, a plant injury at 62 g/ha (soybean (Glycine max); post-emergence, Postemergence, 62 g ai/ha, scale 0 to 100 (0 no effect, 100 complete control), read-out: Soybean plant response rating) of 75% and a plant injury at 125 g/ha (soybean (Glycine max); post-emergence, Postemergence, 125 g ai/ha, scale 0 to 100 (0 no effect, 100 complete control), read-out: Soybean plant response rating) of 90%. The plant injury at 250 g/ha (soybean (Glycine max); post-emergence, Postemergence, 250 g ai/ha, scale 0 to 100, read-out: Plant response rating, Soybean) was 95%, the plant injury at 31 g/ha (soybean (Glycine max); pre-emergence, Preemergence, scale 0 to 100, 0 no effect, 100 complete control, read-out: Plant response rating, Soybean) was 0% and the plant injury at 62 g/ha (soybean (Glycine max); pre-emergence, Preemergence, 62 g ai/ha, scale 0 to 100, 0 no effect, 100 complete control, read-out: Plant response rating, Soybean) was 0%. It also gave a plant injury at 125 g/ha (soybean (Glycine max); pre-emergence, Preemergence, 125 g ai/ha, scale 0 to 100, read-out: Plant response rating, Soybean) of 15% and a plant injury at 250 g/ha (soybean (Glycine max); pre-emergence, Preemergence, 250 g ai/ha, scale 0 to 100, read-out: Plant response rating, Soybean) of 20%.
